{"source": "patent US20050032866A1", "about": "“The use of 5ht4 receptor antagonists in the prophylaxis or treatment of certain cardiovascular conditions” (priority 2000, published 2005)", "key": {"5-HT4B receptor": {"target": "5-HT4B receptor (Homo sapiens, UniProt Q13639)", "sequence (Q13639 whole entry)": "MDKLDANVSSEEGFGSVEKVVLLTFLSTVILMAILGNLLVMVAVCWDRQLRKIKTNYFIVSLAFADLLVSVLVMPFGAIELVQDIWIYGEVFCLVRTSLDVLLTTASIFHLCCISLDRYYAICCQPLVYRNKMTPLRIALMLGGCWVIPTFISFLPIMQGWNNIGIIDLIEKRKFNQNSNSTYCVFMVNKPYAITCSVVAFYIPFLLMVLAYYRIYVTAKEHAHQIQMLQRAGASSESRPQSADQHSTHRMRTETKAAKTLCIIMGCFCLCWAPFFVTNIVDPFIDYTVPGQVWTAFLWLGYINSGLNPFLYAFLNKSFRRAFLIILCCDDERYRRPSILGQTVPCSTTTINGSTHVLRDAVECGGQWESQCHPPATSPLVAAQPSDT", "assay": "5-HT4B receptor antagonism", "format": "biochemical"}, "[1]": {"system": "5-HT-induced atrial arrhythmia in anesthetized Yucatan minipigs", "assay": "5-HT-induced atrial fibrillation / atrial remodelling after rapid atrial pacing in anesthetized Yucatan minipigs", "format": "in vivo, Yucatan minipig", "conditions": "for AERP (Example 2): sensitized pigs, predrug 90±3; for AF inducibility: 64±6% prior to treatment, 10 bursts of pacing; for mean duration of AF episodes: pre-drug 1.9±0.4", "experimental": "The antiarrhythmic efficacy of SB-207266 (0.3 and 1.0 mg/kg, intravenous) was evaluated on the inducibility of AF in a model of 5-HT-induced atrial arrhythmia in anesthetized Yucatan minipigs. […] The atrial effective refractory period (AERP) and AF inducibility were determined during programmed stimulation and burst electrical pacing.\nAnimals. Male Yucatan minipigs (12-17 kg weight) were obtained from Charles River (Saint-Aubin les Elboeuf, France) and were maintained at rest over a 2-week acclimatision period prior to experiments.\nSurgical Preparation of Animals. The minipigs (Charles River, France) were fasted and premedicated (2 mg/kg diazepam+15 mg/kg ketamine, i.m.) before induction of anesthesia by isoflurane inhalation (5% for induction followed by 0.5 to 1.5% for technical preparation) in a mixture of 25% O2 and 75% N2O. The long term anesthesia was maintained with an i.v. infusion of sodium pentobarbital (12 mg/kg/h). A mechanical ventilator (Harvard pump 613) was used to provide artificial respiration during the left thoracotomy in order to keep arterial blood gases and pH within the normal limits (ABL 500 analyzer). Fluid filled catheters were placed in the femoral artery and vein to measure the arterial pressure (P23 ID transducer) and for drug administrations, respectively. Leads II, III and a precordial lead of electrocardiogram were placed for monitoring of standard ECG parameters. Two pairs of electrodes were hooked to the left atrial wall for subsequent stimulation (S8800 stimulator and SIU-5 unit) and for measurement of an atrial electrogram.\nSensitization of the Atrial Tissue. The left atrial appendage was sensitized by rapid atrial pacing (200 ms cycle length over 3 hours) to generate an initial electrical remodelling of the tissue [A. Goette et al., 1996, Circulation, 94, 2968-2974]. […] The cellulose patch retains the 5-HT in contact with the tissue.\nElectrophysiologic Study. The atrial effective refractory period (AERP) was determined using a conventional single extrastimulus technique as previously described [A. Bril, B. Gout et al., J. Pharmacol. Exp. Ther., 1996, 276, 637-646.]. Briefly, a 8-stimulus train at a basic cycle length 20% shorter than the sinus rhythm was followed by a single premature extrastimulus (4 ms, 1.5 times threshold current) introduced at progressively shorter coupling intervals from the atrial pacing until no atrial response was obtained.\nAfter determination of AERP, the atrial fibrillation (AF) challenge was started. AF was induced following atrial pacing by a 2 sec-burst of stimulation (basic cycle length 20 ms cycle length, 2 ms duration, twice the diastolic threshold) introduced within the vulnerable window (AERP+10 ms). AF was defined as at least 1 sec of irregular electrical activity measured on atrial electrogram.\nStudy Design and Dosing. After assessment of reproducible baseline responses of animals (3 successive AF challenges), the minipigs were randomly assigned to receive either sterile distilled water (vehicle group, n=7), or escalating doses of SB-207266 (0.3 and 1.0 mg/kg, n=7) given i.v. over a 10 min period 15 min before determination of AERP and subsequent AF challenge. SB-207266 was dissolved in sterile distilled water and adequate drug solutions were prepared every day. Treatment with vehicle represented a volume of distilled water similar to that used for drug solution (10 ml). Each dose of SB-207266 was administered at 45 min intervals to allow recovery of animals from previous burst pacing challenge.\nMeasurements and Calculations. All parameters were monitored on a chart paper polyrecorder (TA-5000) and digital recording was performed throughout the protocol (DTR 1800). When measured, heart rate was calculated from the ECG and the mean arterial blood pressure was calculated from the pulse pressure. A corrected QT was determined according to the Bazett's formula (QTc=QT (ms)/RR (sec)^1/2). […]"}, "[2]": {"assay": "preliminary studies of side-effects at human daily oral doses", "format": "in vivo", "conditions": "corresponds to about 1.6 to 1.7 mg/kg/day or more"}, "5-HT4 receptor": {"target": "T1, 5-HT4 receptor (Cavia porcellus, UniProt O70528)", "T1 construct": "Longitudinal muscle-myenteric plexus preparations, approximately 3 cm long, are obtained from the distal colon region; from tissue; host or cells: guinea-pig distal colon longitudinal muscle-myenteric plexus", "T1 sequence (O70528 whole entry)": "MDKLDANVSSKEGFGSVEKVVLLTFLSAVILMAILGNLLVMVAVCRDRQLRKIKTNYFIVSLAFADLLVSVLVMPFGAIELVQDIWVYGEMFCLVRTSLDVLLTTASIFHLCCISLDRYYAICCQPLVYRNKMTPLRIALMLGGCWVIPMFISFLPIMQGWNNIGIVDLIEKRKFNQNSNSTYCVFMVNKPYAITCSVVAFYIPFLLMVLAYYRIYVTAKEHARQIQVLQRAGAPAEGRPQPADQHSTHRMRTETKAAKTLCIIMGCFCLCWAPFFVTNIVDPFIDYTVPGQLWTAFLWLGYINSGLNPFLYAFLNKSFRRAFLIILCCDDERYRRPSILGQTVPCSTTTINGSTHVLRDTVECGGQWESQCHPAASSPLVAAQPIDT", "assay": "guinea pig distal colon longitudinal muscle-myenteric plexus, 5-HT-evoked contraction", "format": "cell-based", "experimental": "Male guinea-pigs, weighing 250-400 g are used.\nIn some experiments, this tissue was dosed alternately with an approximately equi-effective concentration of the nicotine receptor stimulant, dimethylphenylpiperazinium (DMPP)."}, "[3]": {"assay": "plasma pharmacokinetics of SB 207266 on once daily oral dosing", "format": "in vivo, human"}, "[4]": {"assay": "plasma concentration of SB-207266 in minipig (LC/MS/MS)", "format": "in vivo, Yucatan minipig", "conditions": "5 min after end of bolus", "experimental": "Evaluation of Plasma Concentration of SB-207266. For each AF challenge, blood samples were collected on EDTA (6%) 5 min after the end of the bolus administration of drug (time point 15 min, see asterisks in FIG. 4A) and centrifuged (1500×g, 10 min at 4° C.). The plasma samples were stored at −80° C. for subsequent analysis. Plasma samples were not collected in the vehicle group. The determination of plasma concentration of SB-207266 was performed by LC/MS/MS with a LLQ for this assay of 5 ng/ml in the pig."}, "[5]": {"system": "5-HT-induced atrial arrhythmia in anesthetized Yucatan minipigs", "assay": "5-HT-induced atrial fibrillation / atrial remodelling after rapid atrial pacing in anesthetized Yucatan minipigs", "format": "in vivo, Yucatan minipig", "conditions": "5-HT alone, topical application for 3 hours, no pacing; control 110.2±1.9; not significant; n=6"}, "5-HT1C": {"target": "5-HT1C (Homo sapiens, UniProt P28335)", "sequence (P28335 33-458, species assumed)": "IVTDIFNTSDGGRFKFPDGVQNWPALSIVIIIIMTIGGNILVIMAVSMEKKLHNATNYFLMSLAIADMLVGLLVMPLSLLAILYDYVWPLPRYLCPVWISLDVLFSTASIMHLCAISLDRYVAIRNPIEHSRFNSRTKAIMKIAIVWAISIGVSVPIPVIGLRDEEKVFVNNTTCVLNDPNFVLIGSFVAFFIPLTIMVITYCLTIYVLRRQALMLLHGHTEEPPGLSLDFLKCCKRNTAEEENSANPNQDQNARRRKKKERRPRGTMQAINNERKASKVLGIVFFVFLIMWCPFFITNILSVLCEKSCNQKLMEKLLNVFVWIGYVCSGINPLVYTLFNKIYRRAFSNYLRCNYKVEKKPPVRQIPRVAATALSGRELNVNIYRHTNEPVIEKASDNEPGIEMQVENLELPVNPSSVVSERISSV", "assay": "radioligand selectivity, 5-HT1C receptors", "format": "binding", "conditions": "read-out: pKi at 5-HT1C (converted)"}, "[6]": {"target": "piglet hippocampal 5-HT4 receptors (Sus scrofa, UniProt Q6Q253)", "sequence (Q6Q253 1-402)": "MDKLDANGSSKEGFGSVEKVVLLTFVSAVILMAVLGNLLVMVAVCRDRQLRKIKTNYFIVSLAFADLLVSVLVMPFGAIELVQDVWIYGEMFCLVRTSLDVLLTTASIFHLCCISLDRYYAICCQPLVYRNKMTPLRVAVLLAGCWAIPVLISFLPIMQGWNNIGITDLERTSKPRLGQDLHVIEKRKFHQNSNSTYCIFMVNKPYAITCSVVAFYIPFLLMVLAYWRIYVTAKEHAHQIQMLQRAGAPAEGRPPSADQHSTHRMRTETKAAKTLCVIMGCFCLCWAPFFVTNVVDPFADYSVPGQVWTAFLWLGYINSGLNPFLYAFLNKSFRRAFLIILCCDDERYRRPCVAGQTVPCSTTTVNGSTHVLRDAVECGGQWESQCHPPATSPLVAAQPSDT", "assay": "binding to piglet hippocampal 5-HT4 receptors, 125I-labelled SB-207710", "conditions": "piglet hippocampal membranes, n=4"}, "5-HT1A": {"target": "5-HT1A (Homo sapiens, UniProt P08908)", "sequence (P08908 whole entry, species assumed)": "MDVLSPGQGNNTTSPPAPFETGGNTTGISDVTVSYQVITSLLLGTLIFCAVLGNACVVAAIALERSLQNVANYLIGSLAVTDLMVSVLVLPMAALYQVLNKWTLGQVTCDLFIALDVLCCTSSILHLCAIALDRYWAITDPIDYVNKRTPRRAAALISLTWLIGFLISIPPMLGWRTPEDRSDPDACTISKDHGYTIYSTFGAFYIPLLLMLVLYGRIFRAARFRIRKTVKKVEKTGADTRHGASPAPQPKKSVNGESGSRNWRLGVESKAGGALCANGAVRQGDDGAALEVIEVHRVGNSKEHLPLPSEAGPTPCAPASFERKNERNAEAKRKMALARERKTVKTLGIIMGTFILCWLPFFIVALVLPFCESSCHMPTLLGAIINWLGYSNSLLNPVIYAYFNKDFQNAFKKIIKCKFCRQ", "assay": "radioligand selectivity, 5-HT1A receptors", "format": "binding", "conditions": "read-out: pKi at 5-HT1A (converted)"}, "5-HT4A receptors": {"target": "5-HT4A receptors (Homo sapiens, UniProt Q13639)", "sequence (Q13639 1-387 isoform Q13639-2)": "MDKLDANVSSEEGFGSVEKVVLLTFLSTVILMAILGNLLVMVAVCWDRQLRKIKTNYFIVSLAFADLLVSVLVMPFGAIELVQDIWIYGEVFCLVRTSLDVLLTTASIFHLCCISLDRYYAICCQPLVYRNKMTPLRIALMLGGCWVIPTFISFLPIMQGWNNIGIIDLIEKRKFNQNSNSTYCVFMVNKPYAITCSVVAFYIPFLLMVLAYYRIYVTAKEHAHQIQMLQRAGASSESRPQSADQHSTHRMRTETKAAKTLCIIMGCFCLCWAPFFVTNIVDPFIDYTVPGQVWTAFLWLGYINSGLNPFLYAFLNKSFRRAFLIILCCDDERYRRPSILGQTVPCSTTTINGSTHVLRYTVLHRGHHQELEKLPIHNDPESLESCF", "conditions": "cited from earlier work"}, "5-HT3A receptors": {"target": "5-HT3A receptors (Homo sapiens, UniProt P46098)", "sequence (P46098 24-478)": "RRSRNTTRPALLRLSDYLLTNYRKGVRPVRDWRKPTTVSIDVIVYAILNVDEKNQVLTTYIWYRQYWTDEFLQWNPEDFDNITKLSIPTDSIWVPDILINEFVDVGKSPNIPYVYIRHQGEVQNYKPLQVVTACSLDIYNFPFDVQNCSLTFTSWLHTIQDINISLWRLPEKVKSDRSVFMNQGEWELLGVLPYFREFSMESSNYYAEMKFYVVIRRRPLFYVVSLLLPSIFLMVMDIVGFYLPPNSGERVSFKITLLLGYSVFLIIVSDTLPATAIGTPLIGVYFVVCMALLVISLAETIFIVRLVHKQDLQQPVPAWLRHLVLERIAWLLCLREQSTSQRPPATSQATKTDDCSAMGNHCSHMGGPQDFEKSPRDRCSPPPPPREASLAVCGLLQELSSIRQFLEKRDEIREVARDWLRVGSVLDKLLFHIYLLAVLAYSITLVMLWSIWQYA", "conditions": "cited from earlier work"}}, "note": "“And” between values parts separate entries of the source, which are not always exact repeats. Equal values may be shown once.", "data": [{"smiles": "CCCCN1CCC(CNC(=O)c2c3n(c4ccccc24)CCCO3)CC1", "note": "[SB 207266, N-[(1-^nbutyl-4-piperidinyl)methyl]-3,4-dihydro-2H-[1,3]oxazino[3,2-a]indole-10-carboxamide]", "values": [{"measurement": "5-HT4B receptor antagonism", "setting": "5-HT4B receptor", "value": "5-HT4B antagonist and found to antagonise 5HT4B receptors"}, {"measurement": "AERP (Example 1)", "setting": "[1]; 0.3 mg/kg i.v., after pacing and 5-HT, pre-drug 90.0±2.7, p<0.01 vs vehicle", "value": "102.3 ± 2.7", "unit": "ms"}, {"measurement": "AERP (Example 2)", "setting": "[1]; 0.3 mg/kg i.v.", "value": "102 ± 3", "unit": "ms"}, {"measurement": "AF inducibility", "setting": "[1]; 0.3 mg/kg i.v.", "value": "46±11", "unit": "%"}, {"measurement": "mean duration of AF episodes", "setting": "[1]; 0.3 mg/kg i.v.", "value": "1.1 ± 0.4 s and 1.1 ± 0.2 s"}, {"measurement": "decrease in AERP caused by rapid atrial pacing plus 5-HT application", "setting": "[1]; 1.0 mg/kg i.v.", "value": "fully restored"}, {"measurement": "AERP (Example 1)", "setting": "[1]; 1.0 mg/kg i.v., after pacing and 5-HT, pre-drug 90.0±2.7, p<0.01 vs vehicle", "value": "110.0 ± 3.6", "unit": "ms"}, {"measurement": "AERP (Example 2)", "setting": "[1]; 1.0 mg/kg i.v.", "value": "110 ± 4", "unit": "ms"}, {"measurement": "AF inducibility", "setting": "[1]; 1.0 mg/kg i.v.", "value": "30±9", "unit": "%"}, {"measurement": "mean duration of AF episodes", "setting": "[1]; 1.0 mg/kg i.v.", "value": "No further reduction"}, {"measurement": "human daily oral dose that might give rise to certain side-effects", "setting": "[2]", "value": "≥ 120", "unit": "mg"}, {"measurement": "5-HT4 receptor antagonist activity in guinea pig colon", "setting": "5-HT4 receptor", "value": "particularly good activity"}, {"measurement": "half-life", "setting": "[3]; human, plasma, oral, read-out: elimination half-life T½", "value": "20 to 24", "unit": "h"}, {"measurement": "time to reach steady-state plasma concentrations", "setting": "[3]; once daily dosing", "value": "4 to 5", "unit": "days"}, {"measurement": "plasma concentration on day 4 as share of the steady-state plasma concentration", "setting": "[3]; once daily dosing, day 4", "value": "about 90%"}, {"measurement": "extent of accumulation", "setting": "[3]; once daily oral dosing", "value": "approximately 1.5 fold"}, {"measurement": "plasma level of SB-207266", "setting": "[4]; 0.3 mg/kg i.v., n=6", "value": "137.7 ± 15.2", "unit": "ng/mL"}, {"measurement": "plasma level of SB-207266", "setting": "[4]; 1.0 mg/kg i.v., n=5", "value": "562.3 ± 40.1", "unit": "ng/mL"}]}, {"smiles": "NCCc1c[nH]c2ccc(O)cc12", "note": "[5-HT, reference compound]", "values": [{"measurement": "AERP", "setting": "[5]", "value": "104.0 ± 6.5", "unit": "ms"}, {"measurement": "AERP", "setting": "[1]; 5-HT applied after 3 h rapid atrial pacing, pacing alone 93.6±3.6", "value": "91.8 ± 3.3", "unit": "ms"}, {"measurement": "AERP (Example 1)", "setting": "[1]; rapid atrial pacing and application of 5-HT, before vehicle or drug, from 111.6±2.6", "value": "90.9 ± 2.1", "unit": "ms"}]}, {"smiles": "CCCCN1CCC(COC(=O)c2cc(I)c(N)c3c2OCCO3)CC1", "note": "[SB-207710, (1-butyl-4-piperidyl)methyl 8-amino-7-iodo-1,4-benzodioxan-5-carboxylate]", "values": [{"measurement": "Ki", "setting": "5-HT1C", "value": "≥ 1", "unit": "µM"}, {"measurement": "Bmax of radioligand", "setting": "[6]", "value": "16±3", "unit": "fmol/mg protein"}, {"measurement": "Ki", "setting": "5-HT1A", "value": "≥ 1", "unit": "µM"}]}, {"smiles": "Cc1noc(-c2ccccc2NC(=O)OCC2CCN(CCNS(C)(=O)=O)CC2)n1", "note": "[GR 138897, [1-[2-[(Methylsulphonyl)amino]ethyl]-4-piperidinyl]methyl[2-(3-methyl-1,2,4-oxadiazol-5-yl)phenyl]carbamate]", "values": [{"measurement": "pKi at 5-HT4A receptors", "setting": "5-HT4A receptors", "value": 10.3}, {"measurement": "pKi at 5-HT3A receptors", "setting": "5-HT3A receptors", "value": "< 5.0"}]}, {"smiles": "COc1[nH]c2ccc(F)cc2c1C(=O)OCC1CCN(CCNS(C)(=O)=O)CC1", "note": "[GR 125487, [1-[2-[(Methylsulphonyl)amino]ethyl]-4-piperidinyl]methyl 5-fluoro-2-methoxy-1H-indole-3-carboxylate]", "values": [{"measurement": "pKi at 5-HT4A receptors", "setting": "5-HT4A receptors", "value": 10.0}, {"measurement": "pKi at 5-HT3A receptors", "setting": "5-HT3A receptors", "value": "< 6.5"}]}]}
